Test results taken from patent US10765114B2, “4-amino-6-(pyridyl and 2-substitutedphenyl)-picolinates and 6-amino-2-(pyridyl and 2-substitutedphenyl)-pyrimidine-4-carboxylates and their use as herbicides” (Dow AgroSciences LLC, priority 2013, dated 2020).

What follows are compounds tested on Key Grass and Sedge Weeds as well as Grass Crops (assay: Post-Emergent Test II (Table 6)). Details: post-emergence, 336 h, CYPSS, 70 g ai/ha, 14 days after application, read-out: Visual Growth Reduction (%) 14 Days After Application CYPSS.
Format: in vivo
How it was run: (§1)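 Plants grown in a greenhouse (~15 h photoperiod, 23-29° C day) to first or second true leaf stage were sprayed post-emergence at 187 L/ha with compound in acetone/DMSO-based aqueous spray containing crop oil concentrate and surfactant, applied at a high rate plus ½× to 1/16× serial rates. Injury was scored visually 14 days later, 0-100% versus untreated plants.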

SMILES | pest or weed control at 70 g/ha
COC(=O)c1nc(-c2ccc(C(F)(F)F)c(F)c2C)cc(N)c1Cl [Compound 9, methyl 4-amino-3-chloro-6-(3-fluoro-2-methyl-4-(trifluoromethyl)phenyl)picolinate] | 95 to 100%

Same assay, conditions: post-emergence, 336 h, CYPSS, 140 g ai/ha, 14 days after application, read-out: Visual Growth Reduction (%) 14 Days After Application CYPSS

SMILES | pest or weed control at 140 g/ha
COC(=O)c1nc(-c2ccc(C(F)(F)F)c(F)c2C)cc(N)c1Cl [Compound 9, methyl 4-amino-3-chloro-6-(3-fluoro-2-methyl-4-(trifluoromethyl)phenyl)picolinate] | 95 to 100%

Same assay, conditions: post-emergence, 336 h, DIGSA: crabgrass (Digitaria sanguinalis), 70 g ai/ha, 14 days after application, read-out: Visual Growth Reduction (%) 14 Days After Application DIGSA

SMILES | pest or weed control at 70 g/ha
COC(=O)c1nc(-c2ccc(C(F)(F)F)c(F)c2C)cc(N)c1Cl [Compound 9, methyl 4-amino-3-chloro-6-(3-fluoro-2-methyl-4-(trifluoromethyl)phenyl)picolinate] | 0 to 29%

Same assay, conditions: post-emergence, 336 h, DIGSA: crabgrass (Digitaria sanguinalis), 140 g ai/ha, 14 days after application, read-out: Visual Growth Reduction (%) 14 Days After Application DIGSA

SMILES | pest or weed control at 140 g/ha
COC(=O)c1nc(-c2ccc(C(F)(F)F)c(F)c2C)cc(N)c1Cl [Compound 9, methyl 4-amino-3-chloro-6-(3-fluoro-2-methyl-4-(trifluoromethyl)phenyl)picolinate] | 0 to 29%

Same assay, conditions: post-emergence, 336 h, ECHSS, 70 g ai/ha, 14 days after application, read-out: Visual Growth Reduction (%) 14 Days After Application ECHSS

SMILES | pest or weed control at 70 g/ha
COC(=O)c1nc(-c2ccc(C(F)(F)F)c(F)c2C)cc(N)c1Cl [Compound 9, methyl 4-amino-3-chloro-6-(3-fluoro-2-methyl-4-(trifluoromethyl)phenyl)picolinate] | 0 to 29%

Same assay, conditions: post-emergence, 336 h, ECHSS, 140 g ai/ha, 14 days after application, read-out: Visual Growth Reduction (%) 14 Days After Application ECHSS

SMILES | pest or weed control at 140 g/ha
COC(=O)c1nc(-c2ccc(C(F)(F)F)c(F)c2C)cc(N)c1Cl [Compound 9, methyl 4-amino-3-chloro-6-(3-fluoro-2-methyl-4-(trifluoromethyl)phenyl)picolinate] | 0 to 29%

Same assay, conditions: post-emergence, 336 h, ORYSS (crop), 70 g ai/ha, 14 days after application, read-out: Visual Growth Reduction (%) 14 Days After Application ORYSS

SMILES | pest or weed control at 70 g/ha
COC(=O)c1nc(-c2ccc(C(F)(F)F)c(F)c2C)cc(N)c1Cl [Compound 9, methyl 4-amino-3-chloro-6-(3-fluoro-2-methyl-4-(trifluoromethyl)phenyl)picolinate] | 0 to 29%

Same assay, conditions: post-emergence, 336 h, ORYSS (crop), 140 g ai/ha, 14 days after application, read-out: Visual Growth Reduction (%) 14 Days After Application ORYSS

SMILES | pest or weed control at 140 g/ha
COC(=O)c1nc(-c2ccc(C(F)(F)F)c(F)c2C)cc(N)c1Cl [Compound 9, methyl 4-amino-3-chloro-6-(3-fluoro-2-methyl-4-(trifluoromethyl)phenyl)picolinate] | 0 to 29%

Same assay, conditions: post-emergence, 336 h, SORVU: grain sorghum (Sorghum vulgare), 70 g ai/ha, 14 days after application, read-out: Visual Growth Reduction (%) 14 Days After Application SORVU

SMILES | pest or weed control at 70 g/ha
COC(=O)c1nc(-c2ccc(C(F)(F)F)c(F)c2C)cc(N)c1Cl [Compound 9, methyl 4-amino-3-chloro-6-(3-fluoro-2-methyl-4-(trifluoromethyl)phenyl)picolinate] | 0 to 29%

Same assay, conditions: post-emergence, 336 h, SORVU: grain sorghum (Sorghum vulgare), 140 g ai/ha, 14 days after application, read-out: Visual Growth Reduction (%) 14 Days After Application SORVU

SMILES | pest or weed control at 140 g/ha
COC(=O)c1nc(-c2ccc(C(F)(F)F)c(F)c2C)cc(N)c1Cl [Compound 9, methyl 4-amino-3-chloro-6-(3-fluoro-2-methyl-4-(trifluoromethyl)phenyl)picolinate] | 30 to 44%

Same assay, conditions: post-emergence, 336 h, TRZSS (crop), 70 g ai/ha, 14 days after application, read-out: Visual Growth Reduction (%) 14 Days After Application TRZSS

SMILES | pest or weed control at 70 g/ha
COC(=O)c1nc(-c2ccc(C(F)(F)F)c(F)c2C)cc(N)c1Cl [Compound 9, methyl 4-amino-3-chloro-6-(3-fluoro-2-methyl-4-(trifluoromethyl)phenyl)picolinate] | 0 to 29%

Same assay, conditions: post-emergence, 336 h, TRZSS (crop), 140 g ai/ha, 14 days after application, read-out: Visual Growth Reduction (%) 14 Days After Application TRZSS

SMILES | pest or weed control at 140 g/ha
COC(=O)c1nc(-c2ccc(C(F)(F)F)c(F)c2C)cc(N)c1Cl [Compound 9, methyl 4-amino-3-chloro-6-(3-fluoro-2-methyl-4-(trifluoromethyl)phenyl)picolinate] | 0 to 29%

Same assay, conditions: post-emergence, 336 h, ZEAMX: maize, corn (Zea mays), 70 g ai/ha, 14 days after application, read-out: Visual Growth Reduction (%) 14 Days After Application ZEAMX

SMILES | pest or weed control at 70 g/ha
COC(=O)c1nc(-c2ccc(C(F)(F)F)c(F)c2C)cc(N)c1Cl [Compound 9, methyl 4-amino-3-chloro-6-(3-fluoro-2-methyl-4-(trifluoromethyl)phenyl)picolinate] | 0 to 29%

Same assay, conditions: post-emergence, 336 h, ZEAMX: maize, corn (Zea mays), 140 g ai/ha, 14 days after application, read-out: Visual Growth Reduction (%) 14 Days After Application ZEAMX

SMILES | pest or weed control at 140 g/ha
COC(=O)c1nc(-c2ccc(C(F)(F)F)c(F)c2C)cc(N)c1Cl [Compound 9, methyl 4-amino-3-chloro-6-(3-fluoro-2-methyl-4-(trifluoromethyl)phenyl)picolinate] | 30 to 44%

Each compound was assayed on Key Broadleaf Weed and Crop Species (assay: Post-Emergent Test II (Table 5)). Details: Abutilon theophrasti, post-emergence, 336 h, ABUTH: velvetleaf (Abutilon theophrasti), application rate 70 (kg ai/ha; footnote: g ai/ha), read-out: Visual Growth Reduction (%) 14 Days After Application ABUTH.
Format: in vivo
How it was run: as §1

SMILES | pest or weed control at 70 g/ha
COC(=O)c1nc(-c2ccc(C(F)(F)F)c(F)c2C)cc(N)c1Cl [Compound 9, methyl 4-amino-3-chloro-6-(3-fluoro-2-methyl-4-(trifluoromethyl)phenyl)picolinate] | 85 to 94%

Same assay, conditions: Abutilon theophrasti, post-emergence, 336 h, ABUTH: velvetleaf (Abutilon theophrasti), application rate 140 (kg ai/ha; footnote: g ai/ha), read-out: Visual Growth Reduction (%) 14 Days After Application ABUTH

SMILES | pest or weed control at 140 g/ha
COC(=O)c1nc(-c2ccc(C(F)(F)F)c(F)c2C)cc(N)c1Cl [Compound 9, methyl 4-amino-3-chloro-6-(3-fluoro-2-methyl-4-(trifluoromethyl)phenyl)picolinate] | 85 to 94%

Same assay, conditions: Amaranthus retroflexus, post-emergence, 336 h, AMARE: redroot pigweed (Amaranthus retroflexus), application rate 70 (kg ai/ha; footnote: g ai/ha), read-out: Visual Growth Reduction (%) 14 Days After Application AMARE

SMILES | pest or weed control at 70 g/ha
COC(=O)c1nc(-c2ccc(C(F)(F)F)c(F)c2C)cc(N)c1Cl [Compound 9, methyl 4-amino-3-chloro-6-(3-fluoro-2-methyl-4-(trifluoromethyl)phenyl)picolinate] | 0 to 29%

Same assay, conditions: Amaranthus retroflexus, post-emergence, 336 h, AMARE: redroot pigweed (Amaranthus retroflexus), application rate 140 (kg ai/ha; footnote: g ai/ha), read-out: Visual Growth Reduction (%) 14 Days After Application AMARE

SMILES | pest or weed control at 140 g/ha
COC(=O)c1nc(-c2ccc(C(F)(F)F)c(F)c2C)cc(N)c1Cl [Compound 9, methyl 4-amino-3-chloro-6-(3-fluoro-2-methyl-4-(trifluoromethyl)phenyl)picolinate] | 0 to 29%

Same assay, conditions: Brassica napus, post-emergence, 336 h, BRSSS: oilseed rape, canola (Brassica napus), application rate 70 (kg ai/ha; footnote: g ai/ha), read-out: Visual Growth Reduction (%) 14 Days After Application BRSSS

SMILES | pest or weed control at 70 g/ha
COC(=O)c1nc(-c2ccc(C(F)(F)F)c(F)c2C)cc(N)c1Cl [Compound 9, methyl 4-amino-3-chloro-6-(3-fluoro-2-methyl-4-(trifluoromethyl)phenyl)picolinate] | 0 to 29%

Same assay, conditions: Brassica napus, post-emergence, 336 h, BRSSS: oilseed rape, canola (Brassica napus), application rate 140 (kg ai/ha; footnote: g ai/ha), read-out: Visual Growth Reduction (%) 14 Days After Application BRSSS

SMILES | pest or weed control at 140 g/ha
COC(=O)c1nc(-c2ccc(C(F)(F)F)c(F)c2C)cc(N)c1Cl [Compound 9, methyl 4-amino-3-chloro-6-(3-fluoro-2-methyl-4-(trifluoromethyl)phenyl)picolinate] | 0 to 29%

Same assay, conditions: Chenopodium album, post-emergence, 336 h, CHEAL: lambsquarters (Chenopodium album), application rate 70 (kg ai/ha; footnote: g ai/ha), read-out: Visual Growth Reduction (%) 14 Days After Application CHEAL

SMILES | pest or weed control at 70 g/ha
COC(=O)c1nc(-c2ccc(C(F)(F)F)c(F)c2C)cc(N)c1Cl [Compound 9, methyl 4-amino-3-chloro-6-(3-fluoro-2-methyl-4-(trifluoromethyl)phenyl)picolinate] | 85 to 94%

Same assay, conditions: Chenopodium album, post-emergence, 336 h, CHEAL: lambsquarters (Chenopodium album), application rate 140 (kg ai/ha; footnote: g ai/ha), read-out: Visual Growth Reduction (%) 14 Days After Application CHEAL

SMILES | pest or weed control at 140 g/ha
COC(=O)c1nc(-c2ccc(C(F)(F)F)c(F)c2C)cc(N)c1Cl [Compound 9, methyl 4-amino-3-chloro-6-(3-fluoro-2-methyl-4-(trifluoromethyl)phenyl)picolinate] | 95 to 100%

Same assay, conditions: Euphorbia heterophylla, post-emergence, 336 h, EPHHL: wild poinsettia (Euphorbia heterophylla), application rate 70 (kg ai/ha; footnote: g ai/ha), read-out: Visual Growth Reduction (%) 14 Days After Application EPHHL

SMILES | pest or weed control at 70 g/ha
COC(=O)c1nc(-c2ccc(C(F)(F)F)c(F)c2C)cc(N)c1Cl [Compound 9, methyl 4-amino-3-chloro-6-(3-fluoro-2-methyl-4-(trifluoromethyl)phenyl)picolinate] | 95 to 100%

Same assay, conditions: Helianthus annuus, post-emergence, 336 h, HELAN: sunflower (Helianthus annuus), application rate 70 (kg ai/ha; footnote: g ai/ha), read-out: Visual Growth Reduction (%) 14 Days After Application HELAN

SMILES | pest or weed control at 70 g/ha
COC(=O)c1nc(-c2ccc(C(F)(F)F)c(F)c2C)cc(N)c1Cl [Compound 9, methyl 4-amino-3-chloro-6-(3-fluoro-2-methyl-4-(trifluoromethyl)phenyl)picolinate] | 0 to 29%

Same assay, conditions: Helianthus annuus, post-emergence, 336 h, HELAN: sunflower (Helianthus annuus), application rate 140 (kg ai/ha; footnote: g ai/ha), read-out: Visual Growth Reduction (%) 14 Days After Application HELAN

SMILES | pest or weed control at 140 g/ha
COC(=O)c1nc(-c2ccc(C(F)(F)F)c(F)c2C)cc(N)c1Cl [Compound 9, methyl 4-amino-3-chloro-6-(3-fluoro-2-methyl-4-(trifluoromethyl)phenyl)picolinate] | 85 to 94%

Same assay, conditions: Viola tricolor, post-emergence, 336 h, VIOTR: wild pansy (Viola tricolor), application rate 70 (kg ai/ha; footnote: g ai/ha), read-out: Visual Growth Reduction (%) 14 Days After Application VIOTR

SMILES | pest or weed control at 70 g/ha
COC(=O)c1nc(-c2ccc(C(F)(F)F)c(F)c2C)cc(N)c1Cl [Compound 9, methyl 4-amino-3-chloro-6-(3-fluoro-2-methyl-4-(trifluoromethyl)phenyl)picolinate] | 0 to 29%

Same assay, conditions: Viola tricolor, post-emergence, 336 h, VIOTR: wild pansy (Viola tricolor), application rate 140 (kg ai/ha; footnote: g ai/ha), read-out: Visual Growth Reduction (%) 14 Days After Application VIOTR

SMILES | pest or weed control at 140 g/ha
COC(=O)c1nc(-c2ccc(C(F)(F)F)c(F)c2C)cc(N)c1Cl [Compound 9, methyl 4-amino-3-chloro-6-(3-fluoro-2-methyl-4-(trifluoromethyl)phenyl)picolinate] | 0 to 29%
